The compounds below were run against Rat recombinant DYRK1A (Rattus norvegicus, UniProt Q63470) (assay: Assaying of the kinase activity of DYRK1A (33P-ATP, myelin basic protein, P81 filter)). Details: 15 μM ATP, 30° C., 30 min; read-out: IC50 DYRK1A.
Type: biochemical
Description: Rat recombinant DYRK1A was expressed in E. coli as a GST fusion protein. It was purified by affinity chromatography on beads of immobilized glutathione (elution with free glutathione). […] After incubation at 30° C. for 30 min, 25-μL aliquots of supernatant were spotted onto Whatman P81 phosphocellulose filters and the filters were washed five times in a solution of phosphoric acid (10 ml/L water). The radioactivity incorporated into the substrate, retained on the moist filters, was then counted in the presence of ACS scintillation fluid (Amersham). The control values were subtracted and the activities were expressed as % of the maximum value, i.e. the value obtained in the absence of inhibitors. The IC50 values were calculated from dose-response curves and are given in μM.
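Also: GST fusion rat DYRK1A made in E. coli, scintillation counting of label bound to substrate, activity as percent of the inhibitor-free maximum after blank subtraction.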

| Compound | IC50 [nM] |
| --- | --- |
| O=C1NC(SCC2CC2)=N/C1=C\c1ccc2c(c1)OCO2 [ST130] | 500 |
| CCCCNC1=N/C(=C\c2ccc3c(c2)OCO3)C(=O)N1CCCC [FCJR464] | > 10000 |
| C#CCSC1=N/C(=C\c2ccc3c(c2)OCO3)C(=O)N1CCCC [SB22] | > 10000 |
| CN1C(=O)/C(=C/c2ccc3c(c2)OCO3)N=C1NCCCO [SA142] | 1300 |
| CCCSC1=N/C(=C\c2ccc3c(c2)OCO3)C(=O)N1C [ST094] | 1800 |
| CC(C)NC1=N/C(=C\c2ccccc2)C(=O)N1C [FC095] | > 10000 |
| CN1C(=O)/C(=C/c2ccc3c(c2)OCO3)N=C1Nc1cccc(CO)c1 [MADE37] | 230 |
| CCSC1=N/C(=C\c2ccc(O)c(OC)c2)C(=O)N1C [ST170] | > 10000 |
| O=C1NC(=S)N/C1=C\c1cc(Br)c2c(c1)OCO2 [ST279] | > 10000 |
| O=C1NC(NCC2CC2)=N/C1=C\c1ccc2c(c1)OCO2 [FC114] | 500 |
| CCSC1=N/C(=C\c2cc(OC)cc(OC)c2)C(=O)N1C [SB56] | > 10000 |
| CCSC1=N/C(=C\c2ccc3c(c2)OCO3)C(=O)N1C [SB26, (5Z)-5-(1,3-benzodioxol-5-ylmethylene)-3-methyl-2-(ethylthio)-3,5-dihydro-4H-imidazol-4-one] | 1400 |
| CN1C(=O)/C(=C/c2ccc3c(c2)OCO3)NC1=S [ST223] | > 10000 |
| CCCCN1C(=O)/C(=C/c2ccc(OC)c(OC)c2)N=C1SCC [SB58] | > 10000 |
| CC(=O)NC1=N/C(=C\c2ccc3c(c2)OCO3)C(=O)N1C [IA24] | > 10000 |
| CN1C(=O)/C(=C/c2ccc3c(c2)OCO3)N=C1SCC1CC1 [ST102] | 1500 |
| CCOC(=O)C(=O)NC1=N/C(=C\c2ccc3c(c2)OCO3)C(=O)N1C [IA35] | > 10000 |
| CN1C(=O)/C(=C/c2ccc3c(c2)OCO3)N=C1c1ccc(O)cc1 [NL96] | 430 |
| COCCNC1=N/C(=C\c2ccc3c(c2)OCO3)C(=O)N1C [FC103] | 1200 |
| CN1C(=O)/C(=C/c2ccc3c(c2)OCO3)N=C1Nc1ccc(CC(=O)O)cc1 [MADE34] | 860 |
| CCOC(=O)CSC1=N/C(=C\c2ccc3c(c2)OCO3)C(=O)N1c1ccccc1 [JR411] | > 10000 |
| CCCNC1=N/C(=C\c2ccc3c(c2)OCO3)C(=O)N1c1ccccc1 [JR445] | > 10000 |
| COC(CNC1=N/C(=C\c2ccc3c(c2)OCO3)C(=O)N1C)OC [MADE10] | 1400 |
| O=C1NC(Nc2ccccc2)=N/C1=C\c1ccc2c(c1)OCO2 [MADE44] | 71 |
| CN1C(=O)/C(=C/c2cc(Br)c3c(c2)OCO3)NC1=S [ST341] | > 10000 |

| Compound | IC50 [nM] |
| --- | --- |
| CCSC1=N/C(=C\c2c[nH]c3ccccc23)C(=O)N1C [FB08] | > 10000 |
| CN1C(=O)/C(=C/c2ccc3c(c2)OCO3)N=C1Nc1ccc2c(c1)OCCO2 [MADE29] | 190 |
| COc1cc(/C=C2\NC(=S)NC2=O)cc(Br)c1O [ST229] | 65000 |
| CCCNC1=N/C(=C\c2cc(OC)c(OC)c(OC)c2)C(=O)N1C [FCFD14] | > 10000 |
| CCSC1=N/C(=C\c2ccc3c(c2)OC(F)(F)O3)C(=O)N1C [ST091] | > 10000 |
| CCSC1=N/C(=C\c2ccc(O)c(OC)c2)C(=O)N1 [ST240] | 2600 |
| CCCCN1C(=O)/C(=C/c2ccc3c(c2)OCO3)N=C1SCc1ccccc1 [SB10] | > 10000 |
| C=CC(=O)NC1=N/C(=C\c2ccc3c(c2)OCO3)C(=O)N1C [IA32] | 15000 |
| CCCCSC1=N/C(=C\c2ccc3c(c2)OCO3)C(=O)N1 [ST124] | 590 |
| CCCCN1C(=O)/C(=C/c2ccc3c(c2)OCO3)N=C1SCC [SB05] | > 10000 |
| CN1C(=O)/C(=C/c2ccc3c(c2)OCO3)N=C1Nc1ccc(O)c(C(=O)O)c1 [MADE33] | 940 |
| C=CCNC1=N/C(=C\c2ccc3c(c2)OCO3)C(=O)N1C [FCFD13] | 1600 |
| CN1C(=O)/C(=C/c2ccc3c(c2)OCO3)N=C1Nc1ccccc1O [MADE9] | 690 |
| CN1C(=O)/C(=C/c2ccc3c(c2)OC(F)(F)O3)NC1=S [ST089] | > 10000 |
| CCCCSC1=N/C(=C\c2c[nH]c3ccccc23)C(=O)N1C [FB17] | > 10000 |
| CCCNC1=N/C(=C\c2ccc3c(c2)OCO3)C(=O)N1 [FC126] | 890 |
| COc1cc(/C=C2\NC(=S)NC2=O)ccc1O [ST202] | > 10000 |
| CCSC1=N/C(=C\c2cc(Br)c3c(c2)OCO3)C(=O)N1C [ST342] | > 10000 |
| CN1C(=O)/C(=C/c2ccc3c(c2)OCO3)N=C1NCc1ccc2c(c1)OCO2 [MADE12] | 4600 |
| CSC1=N/C(=C\c2ccccn2)C(=O)N1C [JR160] | > 10000 |
| O=C1NC(SCC2CCC2)=N/C1=C\c1ccc2c(c1)OCO2 [ST142] | 780 |
| CN1C(=O)/C(=C/c2ccc3c(c2)OCO3)N=C1Nc1ccc2c(c1)OCO2 [MADE30] | 370 |
| CCCCN1C(=O)/C(=C/c2ccc3c(c2)OCO3)N=C1SCc1ccc([N+](=O)[O-])cc1 [SB60] | > 10000 |
| CCCCN1C(=O)/C(=C/c2ccc3c(c2)OCO3)N=C1NCCC [JR442] | > 10000 |
| CSC1=N/C(=C\c2ccccc2O)C(=O)N1C [JR159] | > 10000 |

| Compound | IC50 [nM] |
| --- | --- |
| CSC1=N/C(=C\c2ccccc2)C(=O)N1C [JR158] | > 10000 |
| CCCNC1=N/C(=C\c2ccc3c(c2)OCO3)C(=O)N1C [FCJR405, (5Z)-5-Benzo[1,3]dioxol-5-ylmethylene-3-methyl-2-propylamino-3,5-dihydroimidazol-4-one] | 2300 |
| COCCSC1=N/C(=C\c2ccc3c(c2)OCO3)C(=O)N1 [ST164] | 650 |
| CCNC1=N/C(=C\c2ccc3c(c2)OCO3)C(=O)N1C [FC088] | 900 |
| O=C1NC(=S)N/C1=C\c1c[nH]c2ccccc12 [ST195] | > 10000 |
| CN1C(=O)/C(=C/c2ccc3c(c2)OCO3)N=C1NCC(O)CO (stereo not shown) [MADE47] | 790 |
| CN1C(=O)/C(=C/c2ccc3c(c2)OCO3)N=C1Nc1ccccc1 [MADE32] | 400 |
| CCCCN1C(=O)/C(=C/c2ccc3c(c2)OCO3)N=C1SC [JR448] | > 10000 |
| CCSC1=N/C(=C\c2ccc(O)c(O)c2)C(=O)N1 [ST286] | > 10000 |
| CC(C)CCNC1=N/C(=C\c2ccc3c(c2)OCO3)C(=O)N1C [ST025] | 1700 |
| CC(O)c1cccc(NC2=N/C(=C\c3ccc4c(c3)OCO4)C(=O)N2C)c1 (racemic) [MADE36] | 260 |
| CSC1=N/C(=C\c2ccc3c(c2)OCO3)C(=O)N1C [ST099] | 6800 |
| CN1C(=O)/C(=C/c2ccc3c(c2)OCO3)N=C1NC(=O)Cc1ccccc1 [IA25] | > 10000 |
| CCOC(=O)CSC1=N/C(=C\c2ccc3c(c2)OCO3)C(=O)N1C [JR404] | 5800 |
| NC1=N/C(=C\c2ccc(O)c(O)c2)C(=O)N1 [ST326] | > 10000 |
| CSC1=N/C(=C\c2ccc(Br)cc2)C(=O)N1C [JR162] | > 10000 |
| CCCCN1C(=O)/C(=C/c2ccc3c(c2)OCO3)N=C1NCCCO [SA164] | > 10000 |
| CCSC1=N/C(=C\c2ccc(OC)c(OC)c2)C(=O)N1C [SB55] | > 10000 |
| CN1C(=O)/C(=C/c2ccc3c(c2)OCO3)N=C1NCCO [MADE40] | 730 |
| CCCCNC1=N/C(=C\c2ccc3c(c2)OCO3)C(=O)N1C [FCJR457] | 1800 |
| CN1C(=O)/C(=C/c2ccc3c(c2)OCO3)N=C1SCc1ccccc1 [SB28] | 5700 |
| COC(=O)NCCNC1=N/C(=C\c2ccc3c(c2)OCO3)C(=O)N1C [MADE24] | > 10000 |
| CCCCN1C(=O)/C(=C/c2cc3c(cc2Br)OCO3)N=C1SCC [SB80] | > 10000 |
| CCSC1=N/C(=C\c2cc(Br)c3c(c2)OCO3)C(=O)N1 [ST280] | > 10000 |
| CCNC1=N/C(=C\c2ccc3c(c2)OCO3)C(=O)N1 [FC090, (5Z)-5-Benzo[1,3]dioxol-5-ylmethylene-2-ethylamino-3,5-dihydro-4H-imidazol-4-one] | 1100 |

| Compound | IC50 [nM] |
| --- | --- |
| CC(C)SC1=N/C(=C\c2ccc3c(c2)OCO3)C(=O)N1C [ST097] | 1300 |
| CN1C(=O)/C(=C/c2ccc3c(c2)OCO3)N=C1NC(=O)C(C)(C)C [IA31] | 3400 |
| CNC1=N/C(=C\c2ccc3c(c2)OCO3)C(=O)N1 [FC085] | 1700 |
| COCCSC1=N/C(=C\c2ccc3c(c2)OCO3)C(=O)N1C [SA197] | 2500 |
| CN1C(=O)/C(=C/c2ccc(O)cc2)NC1=S [ST076] | > 10000 |
| CSC1=N/C(=C\c2ccc(O)cc2)C(=O)N1C [ST078] | 6700 |
| CN1C(=O)/C(=C/c2ccc3c(c2)OCO3)N=C1SCC#N [ST211] | 470 |
| CCCCSC1=N/C(=C\c2ccc3c(c2)OCO3)C(=O)N1C [ST101] | 2300 |
| C=CCSC1=N/C(=C\c2ccc3c(c2)OCO3)C(=O)N1C [SB14] | 3400 |
| CN1C(=O)/C(=C/c2ccc3c(c2)OCO3)N=C1Nc1ccccc1 [MADE42] | 430 |
| CC(C)NC1=N/C(=C\c2ccccn2)C(=O)N1C [FC109] | > 10000 |
| CCCSC1=N/C(=C\c2ccc3c(c2)OCO3)C(=O)N1 [ST122] | 440 |
| O=C1NC(Nc2ccc(O)cc2)=N/C1=C\c1ccc2c(c1)OCO2 [MADE48] | 84 |
| CC(C)CNC1=N/C(=C\c2ccc3c(c2)OCO3)C(=O)N1C [FCFD24] | > 10000 |
| CN1C(=O)/C(=C/c2ccc3c(c2)OCO3)N=C1NCC1CC1 [FC107] | 980 |
| CN1C(=O)C(=Cc2c[nH]c3ccccc23)NC1=S [ST197] | > 10000 |
| CCCCN1C(=O)/C(=C/c2ccc3c(c2)OCO3)NC1=S [JR361] | > 10000 |
| COc1cc(/C=C2\N=C(NC(C)C)N(C)C2=O)cc(OC)c1OC [FC104b] | > 10000 |
| C#CCSC1=N/C(=C\c2ccc3c(c2)OCO3)C(=O)N1C [SB16] | 900 |
| CN1C(=O)/C(=C/c2ccc3c(c2)OCO3)N=C1Nc1ccc(O)cc1 [MADE8] | 380 |
| CN1C(=O)/C(=C/c2ccc3c(c2)OCO3)N=C1NCc1ccccc1 [FC097] | 1400 |
| N#CCSC1=N/C(=C\c2ccc3c(c2)OCO3)C(=O)N1 [ST209] | 170 |

Same assay, conditions: IC50 DYRK1A

| Compound | IC50 [nM] |
| --- | --- |
| CNC1=N/C(=C\c2ccc3c(c2)OCO3)C(=O)N1C [FC084] | 2700 |
| CN1C(=O)/C(=C/c2ccc3c(c2)OCO3)N=C1NCCCCCO [MADE23] | 3000 |
| COc1ccc(NC2=N/C(=C\c3ccc4c(c3)OCO4)C(=O)N2C)cc1 [MADE39] | 270 |

— patent US8563588B2, “Imidazolone derivatives, method for the preparation thereof and biological applications” (Universite de Rennes 1, priority 2007, dated 2013)
